Results taken from patent US20060128810A1, “Remedies for allergic diseases” (Kyoto University, priority 2002, published 2006).

Tests used:
[1] = test system: OVA-sensitized mouse asthma model; experiment: OVA-sensitized mouse asthma model, number of inflammatory cells in BALF; type: in vivo, mouse (C57/BL6); settings: subcutaneous; for neutrophil number in BALF: FIG. 2
Source text: An asthma reaction was induced using a wild-type mouse (C57/BL6) that had previously been sensitized with an antigen of OVA twice (day 0 and day 12) by inhalation sensitization at intervals of four days a total of three times (day 22, day 26, and day 30). Subsequently, the change in the number of inflammatory cells in BALF that was an indicator of an allergic reaction was examined.
That is, a compound having an agonistic activity to EP3 receptor is effective in therapy of an allergic disease such as asthma, and a selective agonistic compound to EP3 receptor can be expected to induce a more remarkable therapeutic effect.

[2] = test system: extracted lung of a sensitized wild-type mouse; experiment: Histamine and LT release from extracted lung of sensitized wild-type mouse by in vitro antigen stimulation
Procedure: The inventors of the present invention have studied on involvement of EP3 receptor in allergy reactions using the method already reported in a literature (Science, 287, 2013-(2000)). Specifically, the asthma condition was induced by inhalation of ovalbumin (hereinafter, abbreviated as OVA) in an EP3 receptor-deficient mouse, and the lung condition was analyzed. […] In addition, the suppression of the amount of histamine released from the sensitized lung by the agonist for the EP3 receptor causes only improvement of the portion enhanced by indomethacin. […] The inventors of the present invention have analyzed an EP3 (one of the PGE2 receptor subtypes) gene-deficient mouse and have already elucidated that EP3 is involved in crisis of an allergic reaction from the results of significant increase in the amount of infiltrated eosinophilics in a bronchoalveolar lavage fluid (hereinafter, abbreviated as BALF), and more significant increase in the number of infiltrated cells into a lung tissue and in the amount of Th2 cytokine in the mouse. Furthermore, they have found out that the amount of a chemical mediator that is released by in vitro antigenic stimulation of the lung of a sensitized wild-type mouse is increased by indomethacin which is a PGH-producing enzyme (cyclooxygenase) inhibitor and is suppressed by an agonist for EP3 receptor. […]

[3] = 10 μg/kg twice a day, day 22 to day 33, FIG. 1
[4] = 10 μg/kg twice a day, day 22 to day 33

CCCCC[C@@H](/C=C/[C@H]1[C@H](OC)CC(=O)[C@@H]1C/C=C\CCCC(=O)O)OC [compound (I-1), 11α,15α-dimethoxy-9-oxoprosta-5Z,13E-dienoic acid]
eosinophil number in BALF [1, 3]: decreased significantly
neutrophil number in BALF [1, 4]: decreased significantly

CCCCC(C)(C)[C@H](O)/C=C/[C@H]1[C@H](O)CC(=O)[C@@H]1C/C=C\CCCC(=O)O [dmPGE2, 16,16-dimethyl PGE2]
eosinophil number in BALF [1, 3]: no significant effect
neutrophil number in BALF [1, 4]: no significant effect
eosinophil number in BALF ([1]; 200 μg/kg twice a day, FIG. 3): significant effect

COc1ccc2c(c1)c(CC(=O)O)c(C)n2C(=O)c1ccc(Cl)cc1 [indomethacin]
amount of LT released from the extracted lung [2]: increase
amount of histamine released from the extracted lung [2]: increase
